{"source": "patent US20250304923A1", "about": "“Novel HIV-1 Variants And Their Methods Of Use In An Animal Challenge Model” (priority 2022, published 2025)", "key": {"virus stocks": {"system": "virus stocks", "assay": "Susceptibility of virus stocks to post-exposure prophylaxis drugs (VELA Diagnostics)", "conditions": "all virus stocks, prior to animal testing", "excerpt": "Virus stocks and biologic samples from infected animals were handled with biosafety level 3 operating procedures within a biosafety level 2 physical facility. […] This ensured that any research personnel, in case of accidental exposure to viruses or virus-exposed animals, could be successfully treated with standard post-exposure protocols if necessary."}, "[1]": {"system": "blood lymphocytes, NK cells, B cells, monocytes", "assay": "Immune cell dynamics during dexamethasone administration (flow cytometry of blood)", "parameters": "species or system owl monkeys", "conditions": "monkey, in vivo", "description": "FIG. S8. […] In the top graph, the plasma viremia is reported for each of three animals over the course of the experiment. ND=no HIV-1 RNA detected. In the remainder of the rows, flow cytometry was performed on fresh Nancy Ma's owl monkey blood to enumerate the indicated cell types over the time course of infection. Antibodies: CD8 Invitrogen #MHCD0801; CD4 BD #550631; CD3 BD #563916 or #563918; CD20 BD #340941; CD16 BD #563892; CD14 BD #557923.\nThere are other data to support this. In a few animals, Applicants observe undetectable viremia after the acute phase, like elite controllers (one such animal shown in FIG. S29A). Set point viremia in these animals is below 80 HIV-1 RNA copies per mL, our assay LoQ."}, "[2]": {"parameters": "species or system Nancy Ma's owl monkeys", "conditions": "monkey, in vivo"}}, "note": "Read-outs that look alike come from different tables or passages of the source.", "data": [{"molecule": "Nc1nc(=O)n([C@@H]2CS[C@H](CO)O2)cc1F", "note": "[emtricitabine]", "values": [{"measurement": "susceptibility of virus stocks to drug", "setting": "virus stocks", "result": "susceptible"}]}, {"molecule": "Cc1nnc(C(=O)NC(C)(C)c2nc(C(=O)NCc3ccc(F)cc3)c(O)c(=O)n2C)o1", "note": "[raltegravir]", "values": [{"measurement": "susceptibility of virus stocks to drug", "setting": "virus stocks", "result": "susceptible"}]}, {"molecule": "C[C@H](Cn1cnc2c(N)ncnc21)OCP(=O)(O)O", "note": "[tenofovir]", "values": [{"measurement": "susceptibility of virus stocks to drug", "setting": "virus stocks", "result": "susceptible"}]}, {"molecule": "Dexamethasone sodium phosphate", "values": [{"measurement": "peak rebound viremia upon dexamethasone treatment", "setting": "HIVnom; animal BO", "result": 92, "unit": "HIVnom genomes per mL"}, {"measurement": "peak rebound viremia upon dexamethasone treatment", "setting": "HIVnom; animal JI", "result": 258, "unit": "HIVnom genomes per mL"}, {"measurement": "peak rebound viremia upon dexamethasone treatment", "setting": "HIVnom; animal KI", "result": 612, "unit": "HIVnom genomes per mL"}, {"measurement": "peak rebound viremia upon dexamethasone treatment", "setting": "HIVnom; animal RI", "result": "18,220 HIVnom genomes per mL"}, {"measurement": "virus rebound in blood during dexamethasone treatment", "setting": "HIVnom; three of the four animals infected with HIVnom1 or HIVnom2, subcutaneous, several weeks", "result": "virus rebounded into the blood to detectable levels"}, {"measurement": "depletion of blood immune cells", "setting": "[1]", "result": "reversibly depleting blood lymphocytes, NK cells, and B cells, but not monocytes"}, {"measurement": "hypokalemia", "setting": "[2]", "result": "mild hypokalemia noted to occur in some animals"}]}]}
